Literature values in patent US9708371B2, “Treatments for gastrointestinal disorders” (Ironwood Pharmaceuticals, Inc., priority 2011, dated 2017).
Bridge positions count the residues as written; N and C are the ends. Peptide text beside a SMILES is read from it.

Settings: therapeutic dose levels

## C[C@@H]1NC(=O)[C@@H]2CCCN2C(=O)[C@H](CC(N)=O)NC(=O)[C@@H]2CSSC[C@H](N)C(=O)N[C@H]3CSSC[C@H](NC1=O)C(=O)N[C@@H]([C@@H](C)O)C(=O)NCC(=O)N[C@H](C(=O)N[C@@H](Cc1ccc(O)cc1)C(=O)O)CSSC[C@H](NC(=O)[C@H](Cc1ccc(O)cc1)NC(=O)[C@H](CCC(=O)O)NC3=O)C(=O)N2 [Linaclotide, Cys Cys Glu Tyr Cys Cys Asn Pro Ala Cys Thr Gly Cys Tyr] (H-CCEYCCNPACTGCY-OH; disulfide 1-6, 2-10, 5-13 (inferred); N-terminus and C-terminus assumed)
  levels seen systemically after oral administration: no detectable levels
